The source of these data is patent US20260315398A1, “POLYPEPTIDE DRUG-CONTAINING SUSTAINED-RELEASE MICROSPHERE, PHARMACEUTICAL FORMULATION THEREOF, PREPARATION METHOD THEREFOR, AND USE THEREOF” (HUILLY PHARMA CO., LTD, priority 2023, published 2026).

Data set [1] can be described thus: Effect Simulation of Aggregation Inhibitor, AFM observation of fibrils (FIG. 6). The following applies: aggregation inhibitors sucrose (1) and phenol (2); inhibitor:drug:water 1:3:100, lyophilized, PBS pH 7.4, AFM. Format: physicochemical. Here is the method:
In this embodiment, simulation experiments of anti-aggregation effects are carried out using liraglutide (Lira) and semaglutide (Sema) as examples, respectively, with specific methods as follows.
A mixture of aggregation inhibitors (aggregation inhibitor 1 is sucrose, and aggregation inhibitor 2 is phenol), a drug substance, and deionized water are mixed at a weight ratio of 1:3:100 and subsequently lyophilized. PBS (pH 7.4) is added dropwise to the lyophilized drug powder to simulate gradual infiltration of the drug inside THE microsphere. Afterwards, a portion of the drug is dissolved in the PBS, and an atomic force microscope (AFM) is used to observe whether fibrils are formed by the drug and to simulate structural changes of the drug during the slow permeation process inside the microsphere.

The conditions of data set [2]: high-concentration conditions; cited from earlier work.

As to `CCCCCCCCCCCCCCCC(=O)N[C@@H](CCC(=O)NCCCC[C@H](NC(=O)[C@H](C)NC(=O)[C@H](C)NC(=O)[C@H](CCC(N)=O)NC(=O)CNC(=O)[C@H](CCC(=O)O)NC(=O)[C@H](CC(C)C)NC(=O)[C@H](Cc1ccc(O)cc1)NC(=O)[C@H](CO)NC(=O)[C@H](CO)NC(=O)[C@@H](NC(=O)[C@H](CC(=O)O)NC(=O)[C@H](CO)NC(=O)[C@@H](NC(=O)[C@H](Cc1ccccc1)NC(=O)[C@@H](NC(=O)CNC(=O)[C@H](CCC(=O)O)NC(=O)[C@H](C)NC(=O)[C@@H](N)Cc1cnc[nH]1)[C@@H](C)O)[C@@H](C)O)C(C)C)C(=O)N[C@@H](CCC(=O)O)C(=O)N[C@@H](Cc1ccccc1)C(=O)N[C@H](C(=O)N[C@@H](C)C(=O)N[C@@H](Cc1c[nH]c2ccccc12)C(=O)N[C@@H](CC(C)C)C(=O)N[C@H](C(=O)N[C@@H](CCCNC(=N)N)C(=O)NCC(=O)N[C@@H](CCCNC(=N)N)C(=O)NCC(=O)O)C(C)C)[C@@H](C)CC)C(=O)O` [liraglutide], the “inhibition of fibrillation by aggregation inhibitor” value in data set [1] was “significantly inhibit fibrillation”. For the same molecule, the “aggregation and drug polymer fiber formation” value in data set [2] was “prone to aggregation and even form drug polymer fibers”.
